# Source: patent publication US10829484B2, “Compounds and methods for kinase modulation, and indications therefor” (Plexxikon Inc., priority 2015, dated 2020)
# Biological target: T1, BaF3-FLT3-ITD (Homo sapiens, UniProt P36888, INS600HVDFREYEYD, cells depend on it)
# T1 sequence (P36888 with tags, fused parts or gaps INS600HVDFREYEYD): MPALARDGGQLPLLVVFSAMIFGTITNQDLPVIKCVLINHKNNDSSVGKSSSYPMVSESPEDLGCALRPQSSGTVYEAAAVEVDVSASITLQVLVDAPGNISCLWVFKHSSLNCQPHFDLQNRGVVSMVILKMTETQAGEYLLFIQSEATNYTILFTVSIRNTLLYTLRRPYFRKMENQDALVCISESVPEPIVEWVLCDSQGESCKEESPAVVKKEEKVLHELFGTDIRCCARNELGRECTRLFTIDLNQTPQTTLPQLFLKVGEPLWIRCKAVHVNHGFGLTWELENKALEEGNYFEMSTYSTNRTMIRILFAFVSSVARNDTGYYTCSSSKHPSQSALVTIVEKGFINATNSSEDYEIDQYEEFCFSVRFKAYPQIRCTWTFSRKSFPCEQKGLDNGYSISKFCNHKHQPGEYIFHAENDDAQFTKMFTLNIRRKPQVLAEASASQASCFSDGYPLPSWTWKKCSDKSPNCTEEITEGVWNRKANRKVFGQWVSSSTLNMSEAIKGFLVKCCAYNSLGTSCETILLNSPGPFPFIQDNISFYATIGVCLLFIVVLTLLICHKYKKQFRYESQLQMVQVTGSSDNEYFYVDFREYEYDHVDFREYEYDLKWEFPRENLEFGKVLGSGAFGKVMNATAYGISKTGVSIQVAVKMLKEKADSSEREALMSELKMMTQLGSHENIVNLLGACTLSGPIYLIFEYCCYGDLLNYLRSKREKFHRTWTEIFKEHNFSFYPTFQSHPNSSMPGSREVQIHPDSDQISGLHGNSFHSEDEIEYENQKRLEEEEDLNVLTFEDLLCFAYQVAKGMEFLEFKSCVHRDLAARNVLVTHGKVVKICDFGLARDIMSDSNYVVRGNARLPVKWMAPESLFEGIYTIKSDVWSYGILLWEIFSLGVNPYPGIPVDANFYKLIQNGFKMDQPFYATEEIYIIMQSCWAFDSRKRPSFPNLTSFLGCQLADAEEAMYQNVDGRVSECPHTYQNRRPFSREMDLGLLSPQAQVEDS
# Experiment: CTB viability assay CS0046, BaF3-FLT3-ITD
# Format: cell-based, murine
# Details: BaF3-FLT3-ITD cells, CellTiter Blue viability, 72 hours; read-out: Cell Assay: CS0046:BaF3-FLT3-ITD CTB:IC50
# From the text: Gene constructs containing the human FLT3 sequences FLT3-ITD, FLT3-ITD-F691L, FLT3-ITD-D835V and FLT3-D835V were synthesized by reverse translation of the human protein sequences, with codons optimized for mammalian expression. Sequence of the internal tandem duplication (ITD) was based on the MV4-11 ITD sequence. Synthetic DNA constructs were cloned into the pMSCV puro retroviral vector (Clontech) and transfected into the EcoPack2-293 packaging cell line (Clontech) to generate retroviruses that contain the different FLT3 constructs. Viruses were transduced into the IL-3-dependent, murine […] cell line, Ba/F3, and selected for puromycin resistance and IL-3 independence. All cell lines were cloned by limiting dilution and clones were used for all subsequent cell assays. Overexpression of the FLT3 mutants in the Ba/F3 cells results in constitutive phosphorylation of the exogenous FLT3 protein, which is required for IL-3 independence.
# Cell lines were serum starved overnight in media containing 0.5% FBS, plated at 15,000 cells/well in 96-well white-walled tissue culture plates, and 3-fold serial dilutions of test compounds of Formula I were added for 72 hours at 37° C. CellTiter Blue (CTB, Promega) was added and incubated for an additional 3 hours at 37° C. Fluorescence was read at 560 nm excitation, 590 nm emission. Wells with CTB+media only were used for background subtraction, and the fluorescence of compound-treated cells was normalized to the fluorescence of DMSO-treated cells. IC50s were determined using Igor Pro software. All compounds are assayed in duplicate cell plates.
row,Compound,GI50
1,"Cc1nn(C)c(C)c1Nc1ncc(-c2ccc(CC(=O)Nc3cc(C4(C(F)(F)F)CC4)on3)c(F)c2)cn1 [P-029, 2-[2-fluoro-4-[2-[(l,3,5-trimethylpyrazol-4-yl)amino]pyrimidin-5-yl]phenyl]-N-[5-[1-(trifluoromethyl)cyclopropyl]isoxazol-3-yl]acetamide]",10 to 50 nM
2,"O=C(O)Cn1cc(Nc2ncc(-c3ccc(CC(=O)Nc4cc(C5(C(F)(F)F)CC5)on4)c(F)c3)cn2)cn1 [P-078, 2-[4-[[5-[3-fluoro-4-[2-oxo-2-[[5-[1-(trifluoromethyl)cyclopropyl]isoxazol-3-yl]amino]ethyl]phenyl]pyrimidin-2-yl]amino]pyrazol-1-yl]acetic acid]",10 to 50 nM

# Same assay, conditions: Table 3; CellTiter Blue viability, 72 hours; read-out: Cell Assay: CS0046: BaF3-FLT3-ITD CTB: IC50
row,Compound,GI50
1,O=C(Cc1ccc(-c2cnc(Nc3ccccc3)nc2)cc1F)Nc1cc(C2(C(F)(F)F)CC2)on1,0.152 nM
2,Cn1cc(Nc2ncc(-c3ccc(CC(=O)Nc4cc(C5(C(F)(F)F)CC5)on4)c(F)c3)cn2)cn1,0.0861 nM

# Same assay, conditions: Table 4, compounds from WO 2011/022473; CellTiter Blue viability, 72 hours; read-out: Cell Assay: CS0046: BaF3-FLT3-ITD CTB: IC50
row,Compound,GI50
1,CNc1ccc(-c2ccc(CC(=O)Nc3cc(C(C)(C)C)on3)cc2)cn1 [reference compound],0.146 nM
2,CCNc1ccc(-c2ccc(CC(=O)Nc3cc(C(C)(C)C)on3)cc2)cn1 [reference compound],0.252 nM
3,CC(C)(c1cc(NC(=O)Cc2ccc(-c3ccc(NCCN4CCOCC4)nc3)cc2)no1)C(F)(F)F [reference compound],0.597 nM
4,CC(C)(C)c1cc(NC(=O)Nc2ccc(-c3cnc(NC4CC4)nc3)cn2)no1 [reference compound],5.91 nM
5,CC(C)(C)c1cc(NC(=O)Nc2ccc(-c3cnc(NC4CCOCC4)nc3)cn2)no1 [reference compound],6.6 nM
